From paper PMC12040169 (PLOS Biology, 2025)

Assay: in vitro
Conditions: human, hela cells, % viability

Which viability at 28.5 h, 10 µM does the source give for `Cc1ccc2nc(NCc3ccco3)c(/C=N/Cc3ccco3)c(=O)n2c1` [CBK220353] here?
Its viability at 28.5 h, 10 µM is 80.4%.

Which viability at 28.5 h, 10 µM does the source give for `O=C(CN1C(=O)c2ccccc2C1=O)NCC1COc2ccccc2O1` (stereo not drawn) [CBK222526] here?
Its viability at 28.5 h, 10 µM is 96.8%.

With `NNC(=O)CSc1nnc(-c2ccccc2)n1-c1ccccc1` [CBK223486] as the compound, how does the viability at 28.5 h, 10 µM read?
The viability at 28.5 h, 10 µM was 92.5%.

For `S=c1nc(-c2ccco2)n(Cc2ccccc2)c(=S)n1/C(=N/Cc1ccccc1)c1ccco1` [CBK223550], which viability at 28.5 h, 10 µM is on record?
Its viability at 28.5 h, 10 µM is 108%.

With `O=C1CC(=O)N(Cc2ccccc2)C(=O)N1` [CBK224014] as the compound, how does the viability at 28.5 h, 10 µM read?
Its viability at 28.5 h, 10 µM is 91.7%.

For `O=C(O)CSc1nc2ccccc2[nH]1` [CBK225127], which viability at 28.5 h, 10 µM is on record?
The viability at 28.5 h, 10 µM was 95.3%.

For `COc1cc(NC(=O)c2ccccc2)c(C(=O)O)cc1OC` [CBK227754], which viability at 28.5 h, 10 µM is on record?
The viability at 28.5 h, 10 µM was 89.9%.

For `N/C(CC(=O)Nc1cc(Cl)cc(Cl)c1)=N\O` [CBK228614], which viability at 28.5 h, 10 µM is on record?
The viability at 28.5 h, 10 µM was 105%.

With `O=C(O)C1C(C(=O)O)C1C(=O)O` (stereo not drawn) [CBK230432] as the compound, how does the viability at 28.5 h, 10 µM read?
The viability at 28.5 h, 10 µM was 94.9%.

With `O=S(=O)(Oc1ccccc1)c1ccc2c(c1)Cc1cc(S(=O)(=O)Oc3ccccc3)ccc1-2` [CBK231928] as the compound, how does the viability at 28.5 h, 10 µM read?
The viability at 28.5 h, 10 µM was 88.5%.

Which viability at 28.5 h, 10 µM does the source give for `O=S(=O)(NCCSCc1ccco1)c1ccc(Cl)cc1` [CBK232206] here?
The viability at 28.5 h, 10 µM was 85.6%.

Which viability at 28.5 h, 10 µM does the source give for `O=C(O)COCC(=O)N1CCN(C(c2ccccc2)c2ccccc2)CC1` [CBK232579] here?
Its viability at 28.5 h, 10 µM is 84.3%.

Which viability at 28.5 h, 10 µM does the source give for `Cc1nc(C)c(C(=O)C2=C(O)C(=O)N(CCCN3CCOCC3)C2c2ccncc2)s1` (stereo not drawn) [CBK235187] here?
The viability at 28.5 h, 10 µM was 97.3%.

With `COc1ccc(NCc2cc(=O)oc3cc4c(cc23)CCC4)cn1` [CBK235362] as the compound, how does the viability at 28.5 h, 10 µM read?
Its viability at 28.5 h, 10 µM is 88%.

With `Cn1c(=O)c2c(nc(CN3CCC(Cc4ccccc4)CC3)n2CC(=O)c2ccccc2)n(C)c1=O` [CBK236846] as the compound, how does the viability at 28.5 h, 10 µM read?
The viability at 28.5 h, 10 µM was 88%.

For `Cc1nc(CN2CCN(c3ccc4nnc(C(F)(F)F)n4n3)CC2)cs1` [CBK239750], which viability at 28.5 h, 10 µM is on record?
The viability at 28.5 h, 10 µM was 95.1%.

For `N#Cc1nc(-c2ccco2)oc1N1CCN(C(=O)c2cc3c(s2)CCCCC3)CC1` [CBK240763], which viability at 28.5 h, 10 µM is on record?
The viability at 28.5 h, 10 µM was 93.9%.

With `O=C(NC1CCN(c2ncccn2)CC1)c1ccc[nH]c1=S` [CBK241695] as the compound, how does the viability at 28.5 h, 10 µM read?
Its viability at 28.5 h, 10 µM is 83.9%.

Which viability at 28.5 h, 10 µM does the source give for `CCS(=O)(=O)N1CCC(NC(=O)NC(C)c2ccccc2Cl)CC1` (stereo not drawn) [CBK242304] here?
The viability at 28.5 h, 10 µM was 95.3%.

With `COc1cc(Br)c(OC)c(C(=O)N(C)Cc2cnn(C)c2)c1` [CBK244011] as the compound, how does the viability at 28.5 h, 10 µM read?
Its viability at 28.5 h, 10 µM is 102%.

For `CC(=O)Nc1nc(C(=O)N2CCOC(c3ccc(F)cc3)C2)cs1` (stereo not drawn) [CBK244238], which viability at 28.5 h, 10 µM is on record?
Its viability at 28.5 h, 10 µM is 99.3%.

For `Cc1ccc(C(=O)NCCNc2cnccn2)cc1S(C)(=O)=O` [CBK246280], which viability at 28.5 h, 10 µM is on record?
Its viability at 28.5 h, 10 µM is 103%.

With `Cc1c(Cl)cccc1NC(=O)c1cnc2sccn2c1=O` [CBK246518] as the compound, how does the viability at 28.5 h, 10 µM read?
The viability at 28.5 h, 10 µM was 115%.

Which viability at 28.5 h, 10 µM does the source give for `Cc1cc(Br)ccc1NC(=O)c1cnc2sccn2c1=O` [CBK246520] here?
The viability at 28.5 h, 10 µM was 112%.

Which viability at 28.5 h, 10 µM does the source give for `CCc1noc(C)c1C(=O)NC(C)c1cc2ccccc2o1` (stereo not drawn) [CBK247065] here?
The viability at 28.5 h, 10 µM was 87.1%.

With `CCOc1cc2c(cc1NC(=O)CN(c1cccc(Cl)c1)S(C)(=O)=O)OC(C)C2` (stereo not drawn) [CBK248179] as the compound, how does the viability at 28.5 h, 10 µM read?
Its viability at 28.5 h, 10 µM is 94.6%.

For `Cc1nn(CC(C)C)c(Cl)c1C(=O)Nc1nc2ccc(F)cc2s1` [CBK252188], which viability at 28.5 h, 10 µM is on record?
The viability at 28.5 h, 10 µM was 90.4%.

For `O=C(Cn1cnc2ccc(F)cc2c1=O)N1CCOC2CCCCC21` (stereo not drawn) [CBK253316], which viability at 28.5 h, 10 µM is on record?
The viability at 28.5 h, 10 µM was 80.5%.

With `CN(CC(=O)NCc1ccco1)C1CCCCCC1` [CBK254305] as the compound, how does the viability at 28.5 h, 10 µM read?
The viability at 28.5 h, 10 µM was 97.3%.

With `CCOc1ncccc1NC(=O)Cc1cccc(OC)c1` [CBK256406] as the compound, how does the viability at 28.5 h, 10 µM read?
The viability at 28.5 h, 10 µM was 94.8%.

For `Cc1cc(NC(=O)NC2CCSc3ccccc32)no1` (stereo not drawn) [CBK259296], which viability at 28.5 h, 10 µM is on record?
Its viability at 28.5 h, 10 µM is 74.8%.

Which viability at 28.5 h, 10 µM does the source give for `N#Cc1cccc(C(=O)NCCc2nnc3n2CCCCC3)c1` [CBK259813] here?
Its viability at 28.5 h, 10 µM is 105%.

For `Cc1[nH]c2ccccc2c1C(=O)CCC(=O)O` [CBK260871], which viability at 28.5 h, 10 µM is on record?
The viability at 28.5 h, 10 µM was 95.5%.

Which viability at 28.5 h, 10 µM does the source give for `Oc1n[nH]c2c1CCC2` [CBK260873] here?
The viability at 28.5 h, 10 µM was 95.4%.

Which viability at 28.5 h, 10 µM does the source give for `Cc1n[nH]c(NN)c1Cl` [CBK260876C] here?
The viability at 28.5 h, 10 µM was 89.5%.

With `CC(=O)O[B-]1(OC(C)=O)N(c2ccc(S(N)(=O)=O)cc2)N=C(c2ccccc2)N=[N+]1c1ccccc1` [CBK260879] as the compound, how does the viability at 28.5 h, 10 µM read?
Its viability at 28.5 h, 10 µM is 87.1%.

For `C(=N\c1cccc2c(/N=C/c3c[nH]c4ccccc34)cccc12)/c1c[nH]c2ccccc12` [CBK260887], which viability at 28.5 h, 10 µM is on record?
The viability at 28.5 h, 10 µM was 95.8%.

With `Oc1ccc2[nH]cc(CCNC(c3ccccc3)(c3ccccc3)c3ccccc3)c2c1` [CBK260891] as the compound, how does the viability at 28.5 h, 10 µM read?
Its viability at 28.5 h, 10 µM is 103%.

For `O=C(CSS(=O)(=O)O)NCc1ccccc1` [CBK260897N], which viability at 28.5 h, 10 µM is on record?
Its viability at 28.5 h, 10 µM is 105%.

With `COc1ccc2sc(C)[n+](CCC(=O)O)c2c1` [CBK260899B] as the compound, how does the viability at 28.5 h, 10 µM read?
Its viability at 28.5 h, 10 µM is 83.5%.

With `O=S(=O)(O)CCCSc1nc2ccccc2s1` [CBK260900N] as the compound, how does the viability at 28.5 h, 10 µM read?
The viability at 28.5 h, 10 µM was 100%.

With `O=C(O)CNc1ccccc1C(=O)O` [CBK260902] as the compound, how does the viability at 28.5 h, 10 µM read?
The viability at 28.5 h, 10 µM was 120%.

With `O=C(O)C1CSC(c2cccnc2)N1` (stereo not drawn) [CBK260910] as the compound, how does the viability at 28.5 h, 10 µM read?
Its viability at 28.5 h, 10 µM is 111%.

Which viability at 28.5 h, 10 µM does the source give for `O=C(Nc1cccc2c(NC(=O)C3CC3c3ccccc3)cccc12)C1CC1c1ccccc1` (stereo not drawn) [CBK260911] here?
The viability at 28.5 h, 10 µM was 99.1%.

Which viability at 28.5 h, 10 µM does the source give for `O=C(O)c1ccc(NC(=O)c2nccnc2C(=O)O)cc1` [CBK260916] here?
Its viability at 28.5 h, 10 µM is 97.7%.
